Active and inactive are the calls of the source. The rule behind the calls is not given here.

The series relates to rodent carcinogenicity bioassays, tumor incidence. Put plainly: CCRIS carcinogenicity studies. Summed up:
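NCI-built, expert-reviewed records of carcinogenicity and related test outcomes (mutagenicity, tumor promotion/inhibition) compiled from published and report sources, historical span 1985-2011, not updated.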

In the case of `CN(C)N=Nc1ccccc1`, the carcinogen call by setting is: (Species: RAT, Strain/Sex: SPRAGUE-DAWLEY/FEMALE, Route: INTRAPERITONEAL, TRANSPLACENTAL, Dose: 0, 1 MG/KG ADMINISTERED TO PREGNANT RATS ON DAY 16, 18 AND 20 OF GESTATION (STUDY DURATION: 1 YR), Tumor Site: Type of Lesion: KIDNEY: RENAL MESENCHYMAL TUMOR) “active; positive”; (Species: RAT, Strain/Sex: SPRAGUE-DAWLEY/FEMALE, Route: INTRAPERITONEAL, TRANSPLACENTAL, Dose: 0, 10, 30, 60 MG/KG ADMINISTERED TO PREGNANT RATS ON DAY 20 OF GESTATION (STUDY DURATION: 1 YR), Dose: 0, 10, 30, 60 MG/KG ADMINISTERED TO PREGNANT RATS ON DAY 20 OF GESTATION (STUDY DURATION: 1 YR)) “inactive; negative”; (Species: RAT, Strain/Sex: SPRAGUE-DAWLEY/MALE,FEMALE, Route: SUBCUTANEOUS, Dose: 50 MG/KG 1/WK FOR LIFE, Tumor Site: Type of Lesion: BRAIN, NERVOUS SYSTEM (CENTRAL)) “active; positive”; (Species: RAT, Strain/Sex: SPRAGUE-DAWLEY/MALE, Route: INTRAPERITONEAL, TRANSPLACENTAL, Dose: 0, 1 MG/KG ADMINISTERED TO PREGNANT RATS ON DAY 16, 18 AND 20 OF GESTATION (STUDY DURATION: 1 YR), Tumor Site: Type of Lesion: BRAIN: TUMOR, DENTITIOUS TISSUE: ODONTOMA) “active; positive”; (Species: RAT, Strain/Sex: SPRAGUE-DAWLEY/MALE, Route: INTRAPERITONEAL, TRANSPLACENTAL, Dose: 0, 10, 30, 60 MG/KG ADMINISTERED TO PREGNANT RATS ON DAY 20 OF GESTATION (STUDY DURATION: 1 YR), Dose: 0, 10, 30, 60 MG/KG ADMINISTERED TO PREGNANT RATS ON DAY 20 OF GESTATION (STUDY DURATION: 1 YR)) “inactive; negative”; (Species: RAT, Strain/Sex: STRAIN-BD, Route: ORAL, SUBCUTANEOUS, Dose: 24.8, 43.4 MG/KG 1/WK (MEAN TOTAL DOSE 1.5 G/KG), Tumor Site: Type of Lesion: BRAIN, NERVOUS SYSTEM) “active; positive”.

With `CCCCCCCCCCCCN(C)N=O`, the carcinogen call (Species: RAT, Strain/Sex: F344/MALE, Route: GAVAGE, Dose: 60 MG/ML IN CORN OIL 2/WK FOR 30 WK, STUDY DURATION: 112 WK, Tumor Site: Type of Lesion: LUNG: ADENOCARCINOMA, FORESTOMACH: CARCINOMA, BLADDER, Tumor Site: Type of Lesion: LUNG: ADENOCARCINOMA, FORESTOMACH: CARCINOMA, BLADDER) is “active; positive”.

On to `O=C(O)[C@H]1O[C@@H](N(O)c2ccc3c(c2)Cc2ccccc2-3)[C@H](O)[C@@H](O)[C@@H]1O`, for which the carcinogen call (Species: RAT, Strain/Sex: F344/MALE, Route: INJECTION, Dose: 0, 1 UMOL IN 0.5 ML OF SOLUTION CONTAINING 0.4 ML PHOSPHATE BUFFERED SALINE/ GENTAMYCIN (PH 7) AND 0.1 ML DMSO INJECTED, Tumor Site: Type of Lesion: BLADDER: CARCINOMA) is “active; positive”.

As for `CCCCN(CC)N=O`, the carcinogen call reads like this: (Species: MOUSE, Strain/Sex: DBA/MALE,FEMALE, Route: ORAL, Dose: 10 MG/KG/D IN DRINKING WATER (TOTAL MEAN DOSE 2360 MG/KG), Tumor Site: Type of Lesion: FORESTOMACH: SQUAMOUS CELL CARCINOMA) “active; positive”; (Species: RAT, Strain/Sex: WISTAR/MALE, FEMALE, Route: ORAL, Dose: 0, 10 MG/KG/D FOR 4 WK THEN 5 MG/KG/D FOR DURATION OF STUDY (STUDY DURATION: LIFETIME), Tumor Site: Type of Lesion: ESOPHAGUS: CARCINOMA, PAPILLOMA, PHARYNX: PAPILLOMA, ORAL CAVITY: PAPILLOMA, LIVER: ANGIOSARCOMA, HEPATOCELLULAR CARCINO, Tumor Site: Type of Lesion: ESOPHAGUS: CARCINOMA, PAPILLOMA, PHARYNX: PAPILLOMA, ORAL CAVITY: PAPILLOMA, LIVER: ANGIOSARCOMA, HEPATOCELLULAR CARCINO) “active; positive”.

With `C[C@@H]1O[C@@H](OC[C@H]2O[C@@H](Oc3cc4c(O)cc(O)cc4[o+]c3-c3ccc(O)c(O)c3)[C@H](O)[C@@H](O)[C@@H]2O)[C@H](O)[C@H](O)[C@H]1O`, the carcinogen call runs as follows: (Species: RAT, Strain/Sex: WISTAR/FEMALE, Route: ORAL, Dose: 0, 1.7, 4.1 G/KG/D IN DIET FOR 2 YR (STUDY DURATION: 2 YR), Dose: 0, 1.7, 4.1 G/KG/D IN DIET FOR 2 YR (STUDY DURATION: 2 YR)) “inactive; negative”; (Species: RAT, Strain/Sex: WISTAR/MALE, Route: ORAL, Dose: 0, 1.5, 3.7 G/KG/D DIET FOR 2 YR (STUDY DURATION: 2 YR), Dose: 0, 1.5, 3.7 G/KG/D DIET FOR 2 YR (STUDY DURATION: 2 YR)) “inactive; negative”.

In the case of `Cc1ccc(N(CC2=NCCN2)c2cccc(O)c2)cc1`, the carcinogen call (Species: RAT, Strain/Sex: CRL:CD BR/MALE, FEMALE (65/GROUP), Route: ORAL (GAVAGE), Dose: 10, 50, 150 MG/KG DAILY IN DISTILLED WATER (STUDY DURATION: 101 WK), Dose: 10, 50, 150 MG/KG DAILY IN DISTILLED WATER (STUDY DURATION: 101 WK), Tumor Site: Type of Lesion: BROWN ADIPOSE TISSUE: HIBERNOMA) is “active; positive” and the carcinogen call (Species: RAT, Strain/Sex: CRL:CD BR/MALE, FEMALE (65/GROUP), Route: ORAL (GAVAGE), Dose: 10, 50, 150 MG/KG DAILY IN DISTILLED WATER (STUDY DURATION: 101 WK), Dose: 10, 50, 150 MG/KG DAILY IN DISTILLED WATER (STUDY DURATION: 101 WK), Tumor Site: Type of Lesion: PITUITARY: ADENOMA) is “active; positive”.

As to `O[C@H]1C=Cc2ccc3cc4ccccc4nc3c2[C@@H]1O`, the carcinogen call (Species: MOUSE, Strain/Sex: SWISS/FEMALE, Route: INTRAPERITONEAL, Dose: 0, 1.05 UMOL GIVEN AS 150 NMOL IN 5 µL DMSO WITHIN 24 HR OF BIRTH, 300 NMOL IN 10 µL DMSO ON D 8 OF LIFE, AND 600 NMOL I) is “inactive; negative” and the carcinogen call (Species: MOUSE, Strain/Sex: SWISS/MALE, Route: INTRAPERITONEAL, Dose: 0, 1.05 UMOL GIVEN AS 150 NMOL IN 5 µL DMSO WITHIN 24 HR OF BIRTH, 300 NMOL IN 10 µL DMSO ON D 8 OF LIFE, AND 600 NMOL I) is “inactive; negative”.

In the case of `FC(F)Cl`, the carcinogen call (Species: MOUSE, Strain/Sex: SWISS/FEMALE, Route: INHALATION, Dose: 0, 1000, 5000 PPM 4 HR/D 5 D/WK FOR 78 WK (STUDY DURATION: LIFETIME), Dose: 0, 1000, 5000 PPM 4 HR/D 5 D/WK FOR 78 WK (STUDY DURATION: LIFETIME)) is “inactive; negative”; the carcinogen call (Species: MOUSE, Strain/Sex: SWISS/MALE, Route: INHALATION, Dose: 0, 1000, 5000 PPM 4 HR/D 5 D/WK FOR 78 WK (STUDY DURATION: LIFETIME), Dose: 0, 1000, 5000 PPM 4 HR/D 5 D/WK FOR 78 WK (STUDY DURATION: LIFETIME)) is “inactive; negative”; the carcinogen call (Species: RAT, Strain/Sex: SPRAGUE-DAWLEY/FEMALE, Route: INHALATION, Dose: 0, 1000, 5000 PPM 4 HR/D 5 D/WK FOR 104 WK (STUDY DURATION: LIFETIME), Dose: 0, 1000, 5000 PPM 4 HR/D 5 D/WK FOR 104 WK (STUDY DURATION: LIFETIME)) is “inactive; negative”; the carcinogen call (Species: RAT, Strain/Sex: SPRAGUE-DAWLEY/FEMALE, Route: INHALATION, Dose: 0, 1000, 5000 PPM IN AIR 4 HR/D 5 D/WK FOR 104 WK (STUDY DURATION: LIFETIME), Dose: 0, 1000, 5000 PPM IN AIR 4 HR/D 5 D/WK FOR 104 WK (STUDY DURATION: LIFETIME), Tumor Site: Type of Lesion: [BRAIN WAS ONLY SITE EVALUATED]) is “inactive; negative”; the carcinogen call (Species: RAT, Strain/Sex: SPRAGUE-DAWLEY/MALE, Route: INHALATION, Dose: 0, 1000, 5000 PPM 4 HR/D 5 D/WK FOR 104 WK (STUDY DURATION: LIFETIME), Dose: 0, 1000, 5000 PPM 4 HR/D 5 D/WK FOR 104 WK (STUDY DURATION: LIFETIME)) was “inactive; negative”; the carcinogen call (Species: RAT, Strain/Sex: SPRAGUE-DAWLEY/MALE, Route: INHALATION, Dose: 0, 1000, 5000 PPM IN AIR 4 HR/D 5 D/WK FOR 104 WK (STUDY DURATION: LIFETIME), Dose: 0, 1000, 5000 PPM IN AIR 4 HR/D 5 D/WK FOR 104 WK (STUDY DURATION: LIFETIME), Tumor Site: Type of Lesion: [BRAIN WAS ONLY SITE EVALUATED]) is “inactive; negative”.

Take `C1CN1c1nc(N2CC2)nc(N2CC2)n1`: for the setting “Species: MOUSE, Route: INTRAPERITONEAL, Tumor Site: Type of Lesion: OVARIES, LUNG, THYMUS GLAND, Tumor Site: Type of Lesion: OVARIES, LUNG, THYMUS GLAND”, the carcinogen call was “active; positive”.

For the origin of these results see PubChem BioAssay AID1259411 (Chemical Carcinogenesis Research Information System (CCRIS), 2018).
